Assay results from article PMC6628362, “A New Strategy for Glioblastoma Treatment: In Vitro and In Vivo Preclinical Characterization of Si306, a Pyrazolo[3,4-d]Pyrimidine Dual Src/P-Glycoprotein Inhibitor” (Cancers, 2019).
“And” between values parts separate entries of the source, which are not always exact repeats. Equal entries are not always repeated. Marks after values point to notes of the source that are not given here.

Tests used:
U87 = test: MTT cell growth inhibition, U87; type: cell-based, Human; conditions: 72 h, n = 3
Protocol: (§1) Human GBM cell lines U87 and LN-229 were purchased from the American Type Culture Collection, Rockville, MD, USA. U87-TxR cells were selected from U87 cells by continuous exposure to increasing concentrations of PTX [76]. LN-299, U87 and U87-TxR cells were grown in Minimum Essential Medium with 10% fetal bovine serum, 2 mM L-glutamine and 5000 U/mL penicillin, 5 mg/mL streptomycin solution. Cell lines were maintained at 37 °C in a humidified 5% CO2 atmosphere. They were sub-cultured at 72 h intervals using 0.25% trypsin/EDTA and 16,000 cells/cm^2 were seeded into a fresh medium.
(§2) MTT assay was used to assess the viability of U87 and U87-TxR cells (AppliChem GmbH, Taufkirchen, Germany). After reaching the confluence in 25 cm^2 tissue flasks, U87 and U87-TxR cells were trypsinized. Cells were seeded at the optimal density determined in initial experiments: 4000 cell/well into flat-bottomed 96-well tissue culture plates. Following the overnight incubation, cells were treated with Si306, pro-Si306 and dasatinib (1–25 µM) for 72 h. In addition, the combined effects of Si306 and pro-Si306 with PTX were evaluated in MDR GBM cells. To that end, two concentrations of Si306 and pro-Si306 (0.2 μM and 0.5 μM) were combined with increasing concentrations of PTX (0.1–2 μM) in simultaneous treatment. The sensitization of U87-TxR cells to PTX was studied after 72 h. Briefly, MTT was added to each well in a final concentration of 0.2 mg/mL for 4 h to induce the formation of the formazan in cells with intact/viable mitochondria. Then, produced formazan was dissolved in DMSO, and the absorbance was measured at 540 nm on a microplate reader (LKB 5060-006 Micro Plate Reader, Vienna, Austria). IC50 values were calculated by nonlinear regression analysis using GraphPad Prism 6.0 for Windows (GraphPad Software, La Jolla, CA, USA).

U87-TxR = test: MTT cell growth inhibition, MDR U87-TxR; type: cell-based, Human; conditions: 72 h, n = 3
Protocol: as §1, §2

LN-229 = test: MTT cell growth inhibition, LN-229; type: cell-based, Human; conditions: LN-229, MTT, n = 3
P-gp [1] = test: Flow-cytometric analysis of P-glycoprotein expression in U87-TxR cells; type: cell-based, Human; conditions: 5 µM, 72 h, flow cytometry
Protocol: To assess the P-glycoprotein expression level in MDR GBM cells, flow-cytometry was employed. U87-TxR cells seeded in adherent 6-well plates were treated with 5 µM Si306, pro-Si306 or dasatinib for 72 h. Then, cells were collected by trypsinization, washed in PBS, and then directly immuno-stained by FITC-conjugated anti-P-gp antibody (BD Biosciences, Winnersh, Berkshire, UK). To discriminate the level of background fluorescence, an isotype control IgG2bκ (Abcam, Cambridge, United Kingdom) was used. The fluorescence of FITC-conjugated anti-P-gp was analyzed on assessed on the fluorescence channel 1 (FL1) of the CyFlow Space Partec flow-cytometer (Sysmex Partec GmbH, Görlitz, Germany). After gating to exclude the cell debris and dead cells, a minimum of 10,000 cells per sample was assayed. Summit Dako Software was used for the analyses of results obtained by flow-cytometry.

MCF-7/Adr [2] = test system: MCF-7/Adr; design: method as in PMID 25482933; conditions: read-out: IC50 cell growth; cited from earlier work
MCF-7/Adr [3] = test system: MCF-7/Adr; design: method as in PMID 25482933; conditions: 0.5 μM dasatinib, 72 h; cited from earlier work
[4] = design: method as in PMID 17429625; conditions: mice; cited from earlier work
P-gp [5] = molecular target: P-gp (Homo sapiens, UniProt P08183); test: Rho 123 accumulation assay (P-gp inhibition) in U87-TxR cells; conditions: 30 min; for P-gp activity (Rho 123 intracellular accumulation): 5 µM; for IC50: IC50 of P-gp inhibition, Rho 123 accumulation
Protocol: At the end of the accumulation period, the cells were pelleted by centrifugation, washed with PBS and placed in cold PBS. The samples were kept on ice in a dark setting until the analysis on CyFlow Space Partec flow-cytometer (Sysmex Partec GmbH, Germany). […] A minimum of 10,000 events was assayed for each sample and the obtained results were analyzed using Summit Dako Software (ver. 4.3, Fort Collins, CO, USA).

U87-TxR cells = test: Reversal of paclitaxel resistance, MTT combination treatment; type: cell-based, Human; conditions: 72 h
Protocol: as §2

BT-138 = test: Cell viability, BT-138 (Table S1); type: cell-based; conditions: BT-138, 24 h
Protocol: 1. Cell Growth Inhibition by Dasatinib, Si306 and Pro-Si306
GB cell lines BT138, T98G and A172 were treated with Si306 and pro-Si306 at concentrations ranging from 1 to 100 µM, or with DMSO as a control. Cell viability was evaluated 72 h after treatment for T98G and A172 cell lines and after 24 h for BT-138. In table S1 the IC50 values are reported.
Table S1. Sensitivity of glioblastoma multiforme (GBM) cells to Si306 and pro-Si306 expressed as IC50 […]
Figure S1. Rho 123 accumulation in U87-TxR cells treated with increasing concentrations of TQ (A), Dex-VER (B), Si306 (C) and pro-Si306 (D).
(1 picture or pasted object on this page, not shown here)

CYP3A4 = molecular target: T1, CYP3A4 (Homo sapiens, UniProt P08684); test: CYP3A4 inhibition in human liver microsomes (testosterone 6β-hydroxylation); type: in vitro ADME
T1 construct: Incubations were carried out in a mix containing human liver microsomes (1 mg/mL of protein); from tissue; host or cells: human liver microsomes
Protocol: The inhibition of cytochrome P450 3A4 isoform by Si306 and pro-Si306 was measured by determining its activity on the substrate testosterone.
The activity of CYP3A4 was evaluated by measuring the 6β-hydroxylated testosterone formation (CYP3A4-specific reaction). The amount of 6β-hydroxylated metabolite was assessed in the absence and presence of Si306, pro-Si306 and ketoconazole (testosterone concentration of 100 μM in phosphate buffer 0.025 M, pH 7.4). […] Ketoconazole was used as standard selective inhibitor of CYP3A4 isoenzyme. Incubations were carried out in a mix containing human liver microsomes (1 mg/mL of protein) in phosphate buffer 0.025 M, pH 7.4, NADPH (200 μM) previously solubilized in a MgCl2 48 mM solution. The final incubation volume was 0.25 mL. After a 40 min-incubation period at 37 °C, the reaction was stopped by adding 1 mL of acetonitrile in the presence of corticosterone 2 μM as internal standard. The samples were centrifuged for 20 min at 5000 rpm. Concentrations of testosterone and its metabolite 6β-hydroxytestosterone were assessed by the HPLC method with UV detection. Calibration curve for quantitative analysis of 6β-hydroxytestosterone in the samples was obtained using commercial 6β-hydroxytestosterone purchased from Sigma Aldrich. For the statistical analysis, GraphPad InStat 3.0 (GraphPad Software, San Diego, CA, USA) was used.

[6] = molecular target: Human Serum Albumin (HSA) (Homo sapiens, UniProt P02768); test: Binding fluorimetric assay, HSA; type: in vitro ADME; conditions: 10 µM HSA, fluorescence quenching
Protocol: (§3) In order to determine the binding affinity for Si306 and pro-Si306 to HSA (human serum albumin) and AGP (alpha-1-acid glycoprotein), the protein fluorescence has been monitored by spectroscopy. The quantitative analysis was performed using black 96 multiwell plates: in each well, a fixed concentration of HSA or AGP (10 µM in phosphate buffer 1 mM) was added with different amounts of the tested compound (0.1 µM to 500 µM). Plates were gently shacked and after 30 min at room temperature for equilibration, spectra were recorded from 300 to 400 nm, after excitation at 295 nm, by using a Perkin Elmer EnVision Multilabel Reader 2014 spectrofluorimeter. Finally, spectra were acquired with EnVision Manager ver.1.13 software (Walthman, MA, USA). The obtained non fluorescence quenching percentages were plotted against drug concentrations and the relative KD values were calculated using GraphPad software (version 6.0).

[7] = test system: Alpha-1-acid glycoprotein (AGP); test: Binding fluorimetric assay, AGP; type: in vitro ADME; conditions: 10 µM AGP, fluorescence quenching
Protocol: as §3

[8] = design: method as in PMID 28650650; conditions: cited from earlier work
[9] = design: method as in PMID 28650650; conditions: pro-Si306 administrated p.o.; cited from earlier work

P-gp (Homo sapiens, UniProt P08183), sequence (P08183 whole entry): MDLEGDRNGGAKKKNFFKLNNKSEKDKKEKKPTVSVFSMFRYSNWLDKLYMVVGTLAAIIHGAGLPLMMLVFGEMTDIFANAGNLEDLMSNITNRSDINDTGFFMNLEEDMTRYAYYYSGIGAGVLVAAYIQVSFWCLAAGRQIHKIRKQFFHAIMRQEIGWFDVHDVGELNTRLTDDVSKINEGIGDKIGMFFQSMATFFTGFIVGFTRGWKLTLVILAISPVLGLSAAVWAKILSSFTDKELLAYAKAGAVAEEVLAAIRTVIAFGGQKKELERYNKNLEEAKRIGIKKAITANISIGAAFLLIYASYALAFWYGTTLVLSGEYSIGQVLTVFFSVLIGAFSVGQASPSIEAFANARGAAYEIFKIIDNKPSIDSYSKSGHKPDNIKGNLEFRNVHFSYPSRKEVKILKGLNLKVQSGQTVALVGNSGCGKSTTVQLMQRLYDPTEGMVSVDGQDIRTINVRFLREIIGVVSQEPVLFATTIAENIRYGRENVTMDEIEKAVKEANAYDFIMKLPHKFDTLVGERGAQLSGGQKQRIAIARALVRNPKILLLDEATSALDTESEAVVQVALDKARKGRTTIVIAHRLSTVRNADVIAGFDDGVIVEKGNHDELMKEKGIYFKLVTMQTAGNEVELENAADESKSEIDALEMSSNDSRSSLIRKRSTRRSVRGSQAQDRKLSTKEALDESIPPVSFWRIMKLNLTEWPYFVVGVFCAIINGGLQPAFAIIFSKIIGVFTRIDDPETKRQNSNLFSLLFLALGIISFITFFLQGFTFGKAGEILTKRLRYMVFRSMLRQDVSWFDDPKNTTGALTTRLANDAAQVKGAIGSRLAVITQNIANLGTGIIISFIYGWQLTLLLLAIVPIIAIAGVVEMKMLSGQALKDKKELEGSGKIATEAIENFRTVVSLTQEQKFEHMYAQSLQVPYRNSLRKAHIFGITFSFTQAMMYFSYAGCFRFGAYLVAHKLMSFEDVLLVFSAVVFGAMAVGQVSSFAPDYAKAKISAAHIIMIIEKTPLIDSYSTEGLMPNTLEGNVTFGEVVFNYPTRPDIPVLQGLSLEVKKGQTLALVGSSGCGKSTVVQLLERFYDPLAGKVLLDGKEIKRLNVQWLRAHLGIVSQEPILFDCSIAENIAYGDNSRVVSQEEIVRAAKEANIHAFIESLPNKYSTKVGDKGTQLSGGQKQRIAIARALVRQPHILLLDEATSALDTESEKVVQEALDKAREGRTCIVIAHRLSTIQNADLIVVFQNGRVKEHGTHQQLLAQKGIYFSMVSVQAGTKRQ
T1 sequence (P08684 whole entry): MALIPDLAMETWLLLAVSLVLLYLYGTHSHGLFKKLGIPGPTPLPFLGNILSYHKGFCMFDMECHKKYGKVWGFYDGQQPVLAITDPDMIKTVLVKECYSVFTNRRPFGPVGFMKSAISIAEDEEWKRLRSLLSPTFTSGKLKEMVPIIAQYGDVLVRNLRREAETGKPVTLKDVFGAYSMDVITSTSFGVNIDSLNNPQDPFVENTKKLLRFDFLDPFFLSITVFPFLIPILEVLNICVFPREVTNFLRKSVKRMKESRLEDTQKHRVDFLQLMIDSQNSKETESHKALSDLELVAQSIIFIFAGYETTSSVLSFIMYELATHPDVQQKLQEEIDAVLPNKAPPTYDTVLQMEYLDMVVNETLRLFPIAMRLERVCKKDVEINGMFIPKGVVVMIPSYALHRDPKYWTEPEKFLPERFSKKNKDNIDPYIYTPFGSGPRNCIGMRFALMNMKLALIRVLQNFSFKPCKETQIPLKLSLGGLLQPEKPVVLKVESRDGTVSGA
Human Serum Albumin (HSA), sequence (P02768 25-609): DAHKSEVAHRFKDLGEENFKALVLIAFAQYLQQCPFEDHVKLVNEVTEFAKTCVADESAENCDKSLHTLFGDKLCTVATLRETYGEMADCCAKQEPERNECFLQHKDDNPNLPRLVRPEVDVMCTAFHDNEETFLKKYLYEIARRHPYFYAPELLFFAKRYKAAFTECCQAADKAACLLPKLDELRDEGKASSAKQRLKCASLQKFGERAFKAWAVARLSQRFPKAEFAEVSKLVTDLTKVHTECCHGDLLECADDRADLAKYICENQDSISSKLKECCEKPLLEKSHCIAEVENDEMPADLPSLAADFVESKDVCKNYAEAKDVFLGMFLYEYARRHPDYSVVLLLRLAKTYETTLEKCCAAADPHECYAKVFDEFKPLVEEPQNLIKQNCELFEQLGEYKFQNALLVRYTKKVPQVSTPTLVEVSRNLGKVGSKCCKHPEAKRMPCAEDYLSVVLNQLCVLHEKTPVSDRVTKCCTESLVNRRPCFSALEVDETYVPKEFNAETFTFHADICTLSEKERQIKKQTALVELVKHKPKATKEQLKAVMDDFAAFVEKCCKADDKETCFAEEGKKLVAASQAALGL

Question: Which IC50 (U87) does the source give for Cc1nc(Nc2ncc(C(=O)Nc3c(C)cccc3Cl)s2)cc(N2CCN(CCO)CC2)n1 [Dasatinib, dasatinib, reference compound] here?
Answer: 6.14 ± 0.464 µM

Question: What about the IC50 (U87; Homo sapiens, U-87 MG) of the same compound?
Answer: 6.1 µM

Question: What about the IC50 (U87-TxR) of the same compound?
Answer: 8.52 ± 0.691 µM

Question: And the IC50 (U87-TxR; Homo sapiens, U87-TxR)?
Answer: 8.5 µM

Question: What about the IC50 (LN-229; Homo sapiens, LN-229, 72 h) of the same compound?
Answer: 24.7 µM

Question: What about the IC50 (LN-229; 72 h) of the same compound?
Answer: 24.7 ± 1.03 µM

Question: What about the P-gp expression (P-gp [1]) of the same compound?
Answer: increased P-gp expression

Question: What about the IC50 (MCF-7/Adr [2]) of the same compound?
Answer: 40 µM

Question: And the “reversal of doxorubicin resistance” value (MCF-7/Adr [3])?
Answer: 3.35 fold

Question: What about the oral bioavailability [4] of the same compound?
Answer: 14%

Question: What about the “P-gp activity (Rho 123 intracellular accumulation)” value (P-gp [5]) of the same compound?
Answer: did not show a similar activity

Question: Which IC50 (U87-TxR cells; Homo sapiens, PTX alone, read-out: IC50 ± S.D. for PXT) does the source give for CC(=O)O[C@H]1C(=O)[C@@]2(C)[C@H]([C@H](OC(=O)c3ccccc3)[C@]3(O)C[C@H](OC(=O)[C@H](O)[C@@H](NC(=O)c4ccccc4)c4ccccc4)C(C)=C1C3(C)C)[C@]1(OC(C)=O)CO[C@@H]1C[C@@H]2O [PTX, paclitaxel, reference compound] here?
Answer: 2.84 ± 0.358 µM

Question: With COc1cc2c(cc1OC)CN(CCc1ccc(NC(=O)c3cc(OC)c(OC)cc3NC(=O)c3cnc4ccccc4c3)cc1)CC2 [TQ, tariquidar, reference compound] as the compound, how does the IC50 (P-gp [5]; TQ values in nM (footnote a)) read?
Answer: < 1 nM

Question: With CN1CCN(CCOC(=O)N(c2cccc(Br)c2)c2nc(SCCN3CCOCC3)nc3c2cnn3CC(Cl)c2ccccc2)CC1 (stereo not shown) [pro-Si306] as the compound, how does the IC50 (U87) read?
Answer: 3.04 ± 0.343 µM

Question: What about the IC50 (U87; Homo sapiens, U-87 MG) of the same compound?
Answer: ~3 µM

Question: And the IC50 (U87-TxR; Homo sapiens, U87-TxR)?
Answer: 3.42 ± 0.359 µM

Question: What about the IC50 (LN-229; Homo sapiens, LN-229, 72 h) of the same compound?
Answer: 3.07 ± 0.272 µM

Question: And the IC50 (BT-138)?
Answer: 30.7 ± 4.75 µM

Question: What about the “Relative Reversal of PTX resistance” value (U87-TxR cells; 0.2 µM of the compound) of the same compound?
Answer: 4.47 ***

Question: What about the “Relative Reversal of PTX resistance” value (U87-TxR cells; 0.5 µM of the compound) of the same compound?
Answer: 7.98

Question: What about the “Relative Reversal of PTX resistance” value (U87-TxR cells; 0.5 µM of the compound, listed as Pro-Si306) of the same compound?
Answer: 7.98 ***

Question: And the inhibition at 40 min (CYP3A4; pH 7.4, probe testosterone 100 μM (6β-hydroxylation), at a lower concentration (1–50 μM range))?
Answer: -15%

Question: And the “interaction with CYP3A4” value (CYP3A4; up to 50 μM)?
Answer: do not interact with CYP3A4

Question: What about the BMAX [6] of the same compound?
Answer: 78.00 ± 4.2

Question: And the Kd [6]?
Answer: 21.4 ± 4.5 µM

Question: And the BMAX [7]?
Answer: 96.69 ± 1.5

Question: And the Kd at 30 min ([7]; alpha-1-acid glycoprotein (10 µM) in phosphate buffer)?
Answer: 9.28 ± 0.7 µM

Question: What about the solubility [8] of the same compound?
Answer: enhanced solubility

Question: And the “detection in plasma and brain” value [9]?
Answer: detected neither into the plasma nor in the brain

Question: What about the “P-gp activity (Rho 123 intracellular accumulation)” value (P-gp [5]) of the same compound?
Answer: significant suppression of P-gp activity

Question: And the IC50 (P-gp [5])?
Answer: 3800 nM and 3750 nM
